Activity coefficient data for 55 molecules are collected here from the NIST ThermoML archive (doi:10.1021/je060033f).

Numbers after ± are expanded uncertainties.

The data set can be described thus: activity coefficient (dimensionless); of the first substance listed, at infinite dilution; xn = mol fraction of the nth substance listed. The conditions noted are these: 323.15 K; 101 kPa; Liquid; Chromatography; x1 = 0.
With `CCCO` [propan-1-ol] + C=CC[n+]1ccn(CCCCCCCCCCCC)c1.[Br-], the activity coefficient was 0.23 ± 0.03.

For `CCOCC` [diethyl ether] + C=CC[n+]1ccn(CCCCCCCCCCCC)c1.[Br-], the activity coefficient was 2.95 ± 0.2.

`CCC(C)=O` [butanone] + CCCCCCCCCC[n+]1ccn(CCCB(O)O)c1.[Br-]: the activity coefficient is 1.59 ± 0.11.

For the molecule `c1ccccc1` [benzene] + C=CC[n+]1ccn(CCCCCCCC)c1.[Br-], the activity coefficient is 1.4 ± 0.09.

For the molecule `CC#N` [acetonitrile] + CCCCCCCC[n+]1ccn(CCCB(O)O)c1.[Br-], the activity coefficient is 1.28 ± 0.08.

As to `c1ccsc1` [thiophene] + C=CC[n+]1ccn(CCCCCCCCCC)c1.[Br-], the activity coefficient worked out at 0.89 ± 0.06.

`ClC(Cl)Cl` [trichloromethane] + CCCCCCCC[n+]1ccn(CCCB(O)O)c1.[Br-]: the activity coefficient worked out at 0.23 ± 0.03.

As to `c1ccccc1` [benzene] + C[n+]1ccn(CCCB(O)O)c1.[Br-], the activity coefficient came out at 18.1 ± 1.2.

Consider `ClC(Cl)(Cl)Cl` [tetrachloromethane] + C=CC[n+]1ccn(CCCCCCCCCCCC)c1.[Br-], for which the activity coefficient was found to be 0.7 ± 0.05.

`CCC(C)=O` [butanone] + CCCCCCCCCCCC[n+]1ccn(CCCB(O)O)c1.[Br-]: the activity coefficient was found to be 1.33 ± 0.09.

For `ClC(Cl)(Cl)Cl` [tetrachloromethane] + C[n+]1ccn(CCCB(O)O)c1.[Br-], the activity coefficient came to 21.2 ± 1.4.

In the case of `ClCCl` [dichloromethane] + CCCCCCCC[n+]1ccn(CCCB(O)O)c1.[Br-], the activity coefficient was determined as 0.41 ± 0.03.

With `Cc1cccc(C)c1` [1,3-dimethylbenzene] + CCCCCCCC[n+]1ccn(CCCB(O)O)c1.[Br-], the activity coefficient was determined as 3.57 ± 0.24.

On to `CCC[N+](=O)[O-]` [1-nitropropane] + CCCCCCCC[n+]1ccn(CCCB(O)O)c1.[Br-], for which the activity coefficient worked out at 1.58 ± 0.1.

For `CCCCCCCCC` [nonane] + CCCCCCCCCC[n+]1ccn(CCCB(O)O)c1.[Br-], the activity coefficient stood at 9.92 ± 0.68.

With `C#CCCCCC` [1-heptyne] + C=CC[n+]1ccn(CCCCCCCCCCCC)c1.[Br-], the activity coefficient stood at 1.87 ± 0.13.

Regarding `CCCCCC` [hexane] + C=CC[n+]1ccn(CCCCCCCCCC)c1.[Br-], the activity coefficient was determined as 8.39 ± 0.57.

For the molecule `CCCC(C)=O` [pentan-2-one] + CCCCCCCCCC[n+]1ccn(CCCB(O)O)c1.[Br-], the activity coefficient was 1.67 ± 0.11.

Consider `Cc1ccccc1C` [1,2-dimethylbenzene] + CCCCCCCCCC[n+]1ccn(CCCB(O)O)c1.[Br-], for which the activity coefficient was 1.89 ± 0.13.

With `ClC(Cl)(Cl)Cl` [tetrachloromethane] + C=CC[n+]1ccn(CCCCCCCC)c1.[Br-], the activity coefficient was 0.82 ± 0.05.

Take `Cc1cccc(C)c1` [1,3-dimethylbenzene] + CCCCCCCCCCCC[n+]1ccn(CCCB(O)O)c1.[Br-]: the activity coefficient was 1.98 ± 0.13.

Consider `CCO` [ethanol] + C=CCn1cc[n+](C)c1.[Br-], for which the activity coefficient stood at 0.27 ± 0.03.

Regarding `Cc1ccccc1C` [1,2-dimethylbenzene] + C=CC[n+]1ccn(CCCCCCCC)c1.[Br-], the activity coefficient was determined as 2.39 ± 0.16.

`ClC(Cl)(Cl)Cl` [tetrachloromethane] + C=CC[n+]1ccn(CCCCCCCCCC)c1.[Br-]: the activity coefficient was 0.8 ± 0.05.

As for `ClC(Cl)(Cl)Cl` [tetrachloromethane] + C=CCn1cc[n+](C)c1.[Br-], the activity coefficient came to 1.54 ± 0.1.

Take `CCC(C)=O` [butanone] + C=CC[n+]1ccn(CCCCCCCC)c1.[Br-]: the activity coefficient worked out at 1.46 ± 0.1.

`C1COCCO1` [1,4-dioxane] + C=CCn1cc[n+](C)c1.[Br-]: the activity coefficient worked out at 1.59 ± 0.11.

In the case of `CCC[N+](=O)[O-]` [1-nitropropane] + C=CC[n+]1ccn(CCCCCCCCCCCC)c1.[Br-], the activity coefficient amounted to 1.12 ± 0.07.

On to `CCC(C)=O` [butanone] + C=CC[n+]1ccn(CCCCCCCCCCCC)c1.[Br-], for which the activity coefficient came to 1.43 ± 0.09.

For the molecule `ClC(Cl)Cl` [trichloromethane] + C=CCn1cc[n+](C)c1.[Br-], the activity coefficient stood at 0.25 ± 0.03.

Regarding `C1COCCO1` [1,4-dioxane] + C=CC[n+]1ccn(CCCCCCCCCCCC)c1.[Br-], the activity coefficient was found to be 1.3 ± 0.08.

On to `C#CCCCC` [1-hexyne] + C=CC[n+]1ccn(CCCCCCCCCCCC)c1.[Br-], for which the activity coefficient stood at 1.56 ± 0.1.

As to `c1ccsc1` [thiophene] + CCCCCCCCCC[n+]1ccn(CCCB(O)O)c1.[Br-], the activity coefficient worked out at 0.79 ± 0.05.

Turning to `Cc1cccc(C)c1` [1,3-dimethylbenzene] + C=CC[n+]1ccn(CCCCCCCC)c1.[Br-], the activity coefficient was found to be 2.73 ± 0.19.

As to `ClC(Cl)Cl` [trichloromethane] + C[n+]1ccn(CCCB(O)O)c1.[Br-], the activity coefficient is 3.01 ± 0.2.

`CCCCCC` [hexane] + C=CC[n+]1ccn(CCCCCCCCCCCC)c1.[Br-]: the activity coefficient worked out at 4.41 ± 0.3.

As to `CCCCCCCC` [octane] + CCCCCCCCCCCC[n+]1ccn(CCCB(O)O)c1.[Br-], the activity coefficient was 6.34 ± 0.43.

For the molecule `CO` [methanol] + CCCCCCCCCC[n+]1ccn(CCCB(O)O)c1.[Br-], the activity coefficient stood at 0.05.

For `ClC(Cl)Cl` [trichloromethane] + C=CC[n+]1ccn(CCCCCCCCCC)c1.[Br-], the activity coefficient worked out at 0.13 ± 0.03.

Turning to `CCCCCCCC` [octane] + C[n+]1ccn(CCCB(O)O)c1.[Br-], the activity coefficient amounted to 81 ± 5.5.

Turning to `C#CCCCC` [1-hexyne] + CCCCCCCCCCCC[n+]1ccn(CCCB(O)O)c1.[Br-], the activity coefficient came to 1.86 ± 0.13.

Take `c1ccccc1` [benzene] + CCCCCCCCCC[n+]1ccn(CCCB(O)O)c1.[Br-]: the activity coefficient came to 1.33 ± 0.09.

For the molecule `CC(C)O` [propan-2-ol] + C=CC[n+]1ccn(CCCCCCCCCCCC)c1.[Br-], the activity coefficient came out at 0.29 ± 0.03.

`C1CCCCC1` [cyclohexane] + C=CC[n+]1ccn(CCCCCCCCCCCC)c1.[Br-]: the activity coefficient was 3.12 ± 0.21.

Regarding `Cc1ccccc1` [toluene] + C=CC[n+]1ccn(CCCCCCCC)c1.[Br-], the activity coefficient worked out at 1.92 ± 0.13.

As for `C#CCCCCC` [1-heptyne] + CCCCCCCCCCCC[n+]1ccn(CCCB(O)O)c1.[Br-], the activity coefficient is 2.2 ± 0.15.

`c1ccsc1` [thiophene] + C=CCn1cc[n+](C)c1.[Br-]: the activity coefficient was 1.48 ± 0.1.

For `CC(C)CO` [2-methyl-1-propanol] + C=CC[n+]1ccn(CCCCCCCCCCCC)c1.[Br-], the activity coefficient is 0.23 ± 0.03.

For the molecule `C1CCCCC1` [cyclohexane] + C=CC[n+]1ccn(CCCCCCCC)c1.[Br-], the activity coefficient came to 5.66 ± 0.39.

Take `c1ccsc1` [thiophene] + CCCCCCCCCCCC[n+]1ccn(CCCB(O)O)c1.[Br-]: the activity coefficient turned out to be 0.9 ± 0.06.

As for `CCCCCCCCC` [nonane] + C=CC[n+]1ccn(CCCCCCCC)c1.[Br-], the activity coefficient was 17.4 ± 1.2.

Regarding `Cc1cccc(C)c1` [1,3-dimethylbenzene] + C=CCn1cc[n+](C)c1.[Br-], the activity coefficient turned out to be 11.1 ± 0.76.

Regarding `C#CCCCCC` [1-heptyne] + CCCCCCCCCC[n+]1ccn(CCCB(O)O)c1.[Br-], the activity coefficient is 2.22 ± 0.15.

For the molecule `Cc1ccccc1` [toluene] + CCCCCCCCCC[n+]1ccn(CCCB(O)O)c1.[Br-], the activity coefficient was found to be 1.8 ± 0.12.

As to `ClCCl` [dichloromethane] + CCCCCCCCCCCC[n+]1ccn(CCCB(O)O)c1.[Br-], the activity coefficient was determined as 0.34 ± 0.03.
